From patent US7202239B2, “Cyclohexylphenyl carboxamides tocolytic oxytocin receptor antagonists” (Wyeth, priority 2001, dated 2007) come the findings set out here.

The target in the test is human V2 vasopressin receptor subtype (Homo sapiens, UniProt P30518). The test can be described thus: Vasopressin binding in CHO cell membranes expressing human vasopressin V2 subtype receptors. As to conditions: [3H]arginine vasopressin; for inhibition at 0.1 µM / V2 % inhibition at 100 nM: 100 nM; for IC50: value in parentheses. An excerpt:
Vasopressin Binding in Chinese Hamster Ovary Cell Membranes Expressing Human Vasopressin V2 Subtype Receptors
Chinese Hamster Ovary (CHO) cells stably transfected with the human V2 subtype receptors were obtained from M. Thibonnier, Case Western Reserve University School of Medicine, Cleveland, Ohio.
A. Passaging and Amplification of Cells:
CHO cells transfected with the human vasopressin V2 subtype receptors obtained from M. Thibonnier (pZeoSV vector) are allowed to grow to confluency (approx. >90%) in T-150 flasks under sterile conditions, in a cell culture medium of F-12 Nutrient Mixture (HAM) with L-glutamine (Gibco Cat. # 11765-054) containing 15 mM HEPES (Gibco Cat. # 15630-080), 1% antibiotic/antimycotic (add 5 mL 100×, Gibco Cat. # 15240-062 per 500 mL F-12), 250 μg/mL Zeocin (add 1.25 mL of 100 mg/mL Invitrogen R-250-01 per 500 mL F-12) and 10% Fetal Bovine Serum (Qualified, heat inactivated, Gibco Cat. # 16140-063). The medium is removed by aspiration and the cells washed with 10 mL of Hank's Balanced Salt solution (Gibco Cat. # 14175-095). The salt solution is removed by aspiration and the cells trypsinized with 5 mL of trypsin-EDTA (0.05% trypsin, 0.53 mM EDTA-4Na, Gibco Cat. # 25300-070) for 1 min. The trypsin is removed by aspiration and the cells dislodged by tapping. Cell Culture medium (e.g. 30 mL for 1:30 split) is immediately added and mixed well to inactivate trypsin. 1 mL of detached cells is added to new culture flasks containing fresh Cell Culture medium (e.g. into 25 mL per T-150 flask), and mixed gently. The cells are incubated at 37° C. in 5% CO2. The medium is changed at 3 to 4 day interval (or as appropriate). The cells grow to confluency (approx. >75%–95%) within 7–8 days. All steps are done under sterile conditions. B. Membrane Preparation: The cells are washed twice gently with Hank's Balanced Salt solution (e.g. use 10 mL per T-150 flask). The excess solution is removed and the cells bathed for 15–30 min. in an enzyme-free Cell Dissociation Buffer (e.g. use 8 mL Hank's Based, Gibco Cat. # 13150-016 per T-150 flask) until cells are loosened. The contents are transferred to centrifuge tubes (50 mL) kept in an ice bath. All subsequent steps are done at 4° C. The tubes are centrifuged at 300× g for 15 min (1380 rpm on SORVAL, Model RT6000D, using the rotor for 50 mL tubes). The supernatant is discarded and the cells suspended in homogeneizing buffer(10 mM Tris-HCl containing 0.25 M sucrose and 1 mM EDTA, pH 7.4) ensuring that the volume of the buffer is about ten times the volume of the cell pellet. The cells are pooled into a centrifuge tube (50 mL) and homogenized with a Polytron at setting 6 for 10 sec. The homogenate is transferred into a Potter-Elvjehm homogeneizer and homogenized with 3 strokes. The homogenate is centrifuged at 1500×g for 60 min at 4° C. (3100 rpm using SORVAL, model RT6000D, using the rotor for 50 mL tubes). The pellet is discarded. The supernatant is centrifuged at 100,000×g for 60 min. at 4° C. (Beckman L8-80M ultracentrifuge; spin at 37,500 rpm with rotor type 70 Ti for 50 mL tubes; 38,000 rpm with type 80Ti for 15 mL tubes; or 35,800 rpm with rotor type 45Ti). The supernantant is discarded and the pellet suspended in 3 to 4 mL of Tris buffer (50 mM TRIS-HCl, pH 7.4). The protein content is estimated by the Bradford or Lowry method. The volume of the membrane suspension is adjusted with the membrane buffer (50 mM Tris-HCl containing 0.1% BSA and 0.1 mM PMSF) to give 3.0 mg/mL (or as appropriate) of protein. The membranes are aliquoted and stored at −70° C. C. Radioligand Binding Assay: In wells of a 96-well format microtiter plate, is added 90, 110 or 130 μL (to make up a final volume of 200 μL) of assay buffer containing 50 mM of Tris-HCl (pH 7.4), […], 1 mg % aprotinin, 1 mg % leupeptin, 2 mg % 1,10-phenanthroline, 10 mg % trypsin inhibitor, and 0.1 mM PMSF. The inhibitors are added on the day of the experiment. […]

Chain of human V2 vasopressin receptor subtype (P30518 whole entry): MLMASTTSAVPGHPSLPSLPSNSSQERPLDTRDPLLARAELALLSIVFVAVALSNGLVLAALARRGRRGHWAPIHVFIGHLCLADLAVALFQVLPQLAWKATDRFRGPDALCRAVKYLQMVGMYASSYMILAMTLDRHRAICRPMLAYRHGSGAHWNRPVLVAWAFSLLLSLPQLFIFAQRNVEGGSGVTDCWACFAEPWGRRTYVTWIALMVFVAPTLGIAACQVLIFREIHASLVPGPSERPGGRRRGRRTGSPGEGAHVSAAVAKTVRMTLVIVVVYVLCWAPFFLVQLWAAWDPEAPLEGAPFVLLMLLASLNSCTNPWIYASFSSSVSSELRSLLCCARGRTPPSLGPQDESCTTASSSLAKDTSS

Regarding `CN1CCN(C(=O)c2ccc3n2Cc2ccc(C(=O)O)cc2N(C(=O)c2ccc(C4CCCCC4)cc2)C3)CC1` [Example 3, 10-(4-Cyclohexyl-benzoyl)-3-[(4-methyl-1-piperazinyl)carbonyl]-10,11-dihydro-5H-pyrrolo[2,1-c][1,4]benzodiazepine-8-carboxylic acid], the inhibition at 0.1 µM was -4%.

As for `CN(C)CCCN(C)C(=O)c1ccc2n1Cc1ccccc1N(C(=O)c1ccc(C3CCCCC3)cc1)C2` [Example 35, 10-(4-Cyclohexyl-benzoyl)-N-[3-(dimethylamino)propyl]N-methyl-10,11-dihydro-5H-pyrrolo[2,1-c][1,4]benzodiazepine-3-carboxamide], the inhibition at 0.1 µM amounted to 16%.

As for `Cc1cccc(C(=O)NNC(=O)c2ccc3n2Cc2ccccc2N(C(=O)c2ccc(C4CCCCC4)cc2)C3)c1` [Example 14, 10-(4-Cyclohexyl-benzoyl)-N′-(3-methyl-benzoyl)-10,11-dihydro-5H-pyrrolo[2,1-c][1,4]benzodiazepine-3-carbonyl-hydrazide], the “V2 % inhibition at 100 nM” value stood at 4%.

Take `CN(CCc1ccccn1)C(=O)c1ccc2n1Cc1ccccc1N(C(=O)c1ccc(C3CCCCC3)cc1)C2` [Example 52, 10-(4-Cyclohexyl-benzoyl)-N-methyl-N-[2-(2-pyridinyl)-ethyl]-10,11-dihydro-5H-pyrrolo[2,1-c][1,4]benzodiazepine-3-carboxamide]: the inhibition at 0.1 µM was 8%.

`O=C(c1ccc2n1Cc1ccccc1N(C(=O)c1ccc(C3CCCCC3)cc1)C2)N1CCC(N2CCCC2)CC1` [Example 25, [10-(4-Cyclohexyl-benzoyl)-10,11-dihydro-5H-pyrrolo[2,1-c][1,4]benzodiazepin-3-yl][4-(1-pyrrolidinyl)-1-piperidinyl]methanone]: the IC50 is more than 1 µM.

As for `O=C(c1ccc(C2CCCCC2)cc1)N1Cc2ccc(C(=O)N3CCC[C@H]3CN3CCCC3)n2Cc2ccccc21` [Example 46, [10-(4-Cyclohexyl-benzoyl)-10,11-dihydro-5H-pyrrolo[2,1-c][1.4]benzodiazepin-3-yl][(2S)-2-(1-pyrrolidinylmethyl)pyrrolidinyl]methanone], the “V2 % inhibition at 100 nM” value is reported as 14%.

On to `NC(=O)c1ccc2n1Cc1ccccc1N(C(=O)c1ccc(C3CCCCC3)cc1)C2` [Example 16, 10-(4-Cyclohexyl-benzoyl)-10,11-dihydro-5H-pyrrolo[2,1-c][1,4]benzodiazepin-3-carboxamide], for which the concentration for half-maximal inhibition (IC50) is more than 1 µM.

As to `CN(C)C=NNC(=O)c1ccc2n1Cc1ccccc1N(C(=O)c1ccc(C3CCCCC3)cc1)C2` [Example 10, N′-{[10-(4-Cyclohexyl-benzoyl)-10,11-dihydro-5H-pyrrolo[2,1-c][1.4]benzodiazepin-3-yl]carbonyl}-N,N-dimethylhydrazonoformamide], the IC50 was 1.16 µM.

On to `NNC(=O)c1ccc2n1Cc1ccccc1N(C(=O)c1ccc(C3CCCCC3)cc1)C2` [Example 8, 10-(4-Cyclohexy-benzoyl)-10,11-dihydro-5H-pyrrolo[2,1-c][1,4]benzodiazepine-3-carboxylic acid hydrazide], for which the IC50 is more than 1 µM.

Take `CC(C)N1CCN(C(=O)c2ccc3n2Cc2ccccc2N(C(=O)c2ccc(C4CCCCC4)cc2)C3)CC1` [Example 44, [10-(4-Cyclohexyl-benzoyl)-10,11-dihydro-5H-pyrrolo[2,1-c][1,4]benzodiazepin-3-yl](4-isopropyl-1-piperazinyl)methanone]: the inhibition at 0.1 µM turned out to be 1%.

Turning to `O=C(c1ccc2n1Cc1ccccc1N(C(=O)c1ccc(C3CCCCC3)cc1)C2)N1CCN(CCN2CCOCC2)CC1` [Example 42, [10(4-Cyclohexyl-benzoyl)-10,11-dihydro-5H-pyrrolo[2,1-c][1,4]benzodiazepin-3-yl]{4-[2-(4-morpholinyl)ethyl]-1-piperazinyl}methanone], the inhibition at 0.1 µM amounted to 4%.

For the compound `O=C(NNC(=O)c1ccc2n1Cc1ccccc1N(C(=O)c1ccc(C3CCCCC3)cc1)C2)Nc1ccccc1` [Example 15, 2-{[10-(4-Cyclohexyl-benzoyl)-10,11-dihydro-5H-pyrrolo[2,1-c][1,4]benzodiazepin-3-yl]carbonyl}-N-phenyl-1-hydrazinecarboxamide], the inhibition at 0.1 µM stood at 11%.
